“Also recorded” adds a separate entry of the source.
Legend:
[1] = test system: various tumor cell lines / γδ T cells; experiment: TNF-α production induction ability in various tumor cell lines (FIG. 7, 8); assay type: cell-based; details: various tumor cell lines pretreated, γδ T cells (FIG. 7, 8)
Description: From the results of the above-mentioned Experimental Example, of the bisphosphonic acid POM ester derivatives, since the activity of compound 7 was high, the TNF-α production induction ability of this compound was studied using tumor cells other than EJ-1. In this case, to study effectiveness of POM esterification, using compound 14, which is the corresponding bisphosphonic acid, as a control to be the comparison target. […] Thereto was added a solution (500 μl) of compound 7 obtained by serially diluting 10 mM stock solution 10-fold from 20 μM, or a solution (500 μl) of compound 14 obtained by serially diluting 10 mM stock solution 10-fold from 200 μM, and the cells were suspended well. These conical tubes were stood at 37° C. for 4 hr, and the cells were washed 3 times with 5 ml of culture medium. To these cells was added 500 μl of medium, and the cells were suspended well. […] The content of TNF-α was calculated from the analytical curve of TNF-α. […]
Therefore, TNF-α production induction ability of compound 7 was studied in more number of tumor cell lines. […] The content of TNF-α was calculated from the analytical curve of TNF-α.
To quantitatively study the above-mentioned TNF-α production induction ability, various tumor cell lines were treated with compound 7, reacted with γδ T cells, the produced TNF-α amount was measured, and TNF-α50 value thereof was calculated. […]

[2] = test system: farnesyl diphosphate synthase (geranylgeranylation of Rap1A); experiment: Rap1A geranylgeranylation inhibition in tumor cells (Western blotting); assay type: cell-based; details: non-geranylgeranylated Rap1A, 16 hr, various tumor cell lines (FIG. 9)
From the text: To verify this mechanism, whether the farnesyl diphosphate synthase is inhibited in the cell needs to be confirmed. If farnesyl diphosphate synthase is inhibited, intracellular concentration of geranylgeranyl diphosphate decreases, and geranylgeranylation of Rap1A small G protein is inhibited. The inhibitory effect thereof is clarified by quantifying the inhibition of geranylgeranylation of Rap1A. […] As the tumor cells, MOLT-3, PEER, C1R, J.RT3-T3.5, Raji, RAMOS-RA1, MOLT-4, HL60, U937, THP-1, SCC-3, P31/FUJ, K562, NOMO-1, YMB-1-E, MRK-nu-1, HMC-1-8, MCF-7, MDA-MB-231, T-47D, SK-BR-3, 786-0, VMRC-RCZ, UOK121, Caki-1, A-704, BxPC-3, KP4-1, KP4-2, KP4-3, MiaPaCa-2, TGBC24TKB, ACS, MG-63, LK-2, EJ-1 were used. […] Thereto was added 10 mM stock solution of compound 7 to a final concentration of 10 μM, 1 μM, 100 nM, 10 nM, 1 nM, 100 pM, 10 pM, 1 pM. These flasks were cultured at 37° C. under 5% CO2 atmosphere for 16 hr. Non-adherent cells were left unattended, and adherent cells were recovered using EDTA/trypsin solution. […] The supernatant was removed, and suspended in cell lysis solution (100 μl) composed of 1% NP-40, 0.1% SDS, 0.5% sodium deoxycholate. […]
To quantitatively analyze the inhibitory efficiency thereof, the concentration of a compound that inhibits geranylgeranylation of Rap1A by half was calculated as EC50 value and studied by comparison. […]

[3] = test system: γδ T cells in peripheral blood mononuclear cells of a healthy adult; details: healthy adult PBMC, 1 μM, IL-2, 14 days of culture
Description: Mononuclear cells were obtained by the specific gravity centrifugation method from the peripheral blood of a healthy adult. The obtained mononuclear cells were suspended in Yssel medium at 1.8×10^6 cells/ml, and seeded by 1.5 ml in each well of a 24-well plate. Compound 7 was added to each well at a concentration of 1 μM, and cultured at 37° C. under 5% CO2 atmosphere. After one day of culture, IL-2 was added at a concentration of 100 IU/ml, and the cells were cultured in the presence of 100 IU/ml IL-2 thereafter up to day 6, and cultured in the presence of 30 IU/ml IL-2 from day 7. After 14 days of culture, the cells were recovered, and cell surface molecule was analyzed by flow cytometry using labeled anti-CD3 antibody and labeled anti-Vδ2 antibody. As a control, an antibody having the same isotype as anti-CD3 antibody and anti-Vδ2 antibody but irrelevant thereto was used. The ratio (%) of γδ T cells having the Vδ2 region in CD3 cells was determined.

[4] = test system: γδ T cells in peripheral blood mononuclear cells of breast cancer patients; details: breast cancer patient PBMC, IL-2, 17 days of culture
Description: The obtained mononuclear cells were suspended in Yssel medium at 1.8×10^6 cells/ml, and seeded by 1.5 ml in each well of a 24-well plate. Compound 7 was added to each well at a concentration of 1 μM, and cultured at 37° C. under 5% CO2 atmosphere. After one day of culture, IL-2 was added at a concentration of 100 IU/ml, and the cells were cultured in the presence of 100 IU/ml IL-2 thereafter up to day 6, and cultured in the presence of 30 IU/ml IL-2 from day 7. After 14 days of culture, the cells were recovered, and cell surface molecule was analyzed by flow cytometry using labeled anti-CD3 antibody and labeled anti-Vδ2 antibody. As a control, an antibody having the same isotype as anti-CD3 antibody and anti-Vδ2 antibody but irrelevant thereto was used. The ratio (%) of γδ T cells having the Vδ2 region in CD3 cells was determined.
In the same manner as in Experimental Example 21 except that mononuclear cells obtained from the peripheral blood of breast cancer patients were used, compound 7 was added, and the cells were cultured at 37° C. under 5% CO2 atmosphere. […] After 17 days of culture, the cells were recovered, and cell surface molecule was analyzed by flow cytometry in the same manner as in Experimental Example 21. Also, the ratio (%) of γδ T cells having the Vδ2 region in CD3 cells was determined.

Structure (SMILES): CC(C)(C)C(=O)OCOP(=O)(OCOC(=O)C(C)(C)C)C(CNc1nccs1)P(=O)(OCOC(=O)C(C)(C)C)OCOC(=O)C(C)(C)C [Compound 7, tetrakispivaloyloxymethyl 2-(thiazol-2-ylamino) ethylidene-1,1-bisphosphonate]
- TNF-α production induction ability (in words) [1]: TNF-α production induction ability becomes high by POM esterification in any tumor cells; also recorded: efficient induction of TNF-α production from γδ T cells in any cell line
- farnesyl diphosphate synthase inhibitory action in cells (in words) [2]: inhibits efficiently, in any tumor cells, farnesyl diphosphate synthase; also recorded: high farnesyl diphosphate synthase inhibitory action in lymphatic tumor cells and myeloidic tumor cells
- ratio (%) of γδ T cells having the Vδ2 region in CD3 cells [3]: 99.8%
- ratio (%) of γδ T cells having the Vδ2 region in CD3 cells (purity) [4]: not less than 96%

Reference: patent publication US10532065B2, “Bisphosphonic acid derivative and application for same” (NAGASAKI UNIVERSITY, priority 2014, dated 2020)
